Measured values taken from PubChem BioAssay AID1259407 (Chemical Carcinogenesis Research Information System (CCRIS), 2018).
Calls of active or inactive are those of the source. The rule behind the calls is not given here.

System: CCRIS mutagenicity, Ames/micronucleus/aberration tests
Assay: CCRIS mutagenicity studies
Conditions: Test System: AMES SALMONELLA TYPHIMURIUM, Method: STANDARD PLATE

Measured: mutagenic call

COc1ccc(N(CCCl)CCCl)c2oc([N+](=O)[O-])cc12
active: Strain/Indicator: TA100(NR), Metabolic Activation: NONE active; positive | Strain/Indicator: TA100(NR), Metabolic Activation: RAT, LIVER, S-9, AROCLOR 1254 active; positive | Strain/Indicator: TA100, Metabolic Activation: NONE active; positive | Strain/Indicator: TA100, Metabolic Activation: RAT, LIVER, S-9, AROCLOR 1254 active; positive
